The values that follow come from US9221808B2, “Pyridylthiazole-based ureas as inhibitors of Rho associated protein kinase (ROCK) and methods of use” (H. Lee Moffitt Cancer Center and Research Institute, Inc., priority 2010, dated 2015).

Where two headings read alike, the source gives them in different places. A value given as a limit tells only on which side of the number the result lay.

Experiment [1] concerns the target T1, ROCK2 (Homo sapiens (Human), UniProt O75116). Briefly: FRET-based Z'-Lyte kinase assay, ROCK2.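 Note: kinase phosphorylates a coumarin/fluorescein FRET peptide, then a protease cleaves unphosphorylated peptide, read as donor/acceptor emission ratio after 400 nm excitation.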 Format: biochemical. To be noted: read-out: ROCK2 IC50.
Text: A) In the primary reaction, the Rho kinases phosphorylates a single serine or threonine residue in a synthetic FRET-peptide. This FRET-peptide is doubly labeled with a fluorophore at each end—coumarin (the FRET donor) on one end and fluorescein (the FRET acceptor) on the other—and also contains a single phosphorylation site which either overlaps with or lies adjacent to the proteolytic site. B) In the secondary reaction, a site-specific protease recognizes and cleaves the non-phosphorylated FRET-peptide. Cleavage disrupts FRET between the donor and acceptor fluorophores on the FRET-peptide, whereas uncleaved, phosphorylated FRET-peptides maintain FRET. Kinases phosphorylated FRET-peptides cannot be cleaved by the protease. […] Cleavage disrupts FRET and causes a decrease in the fluorescein fluorescence signal and a strong increase in the coumarin fluorescence signal. Therefore the extension of the phosphprylation can be measured by FRET-signal remaining the protease reaction. The assay uses a ratiometric method, which calculates the ratio of donor emission to acceptor emission (the emission ratio) after excitation of the donor fluorophore at 400 nm, to quantitate reaction progress.
All compounds were systematically screened against ROCK1 and ROCK2.
Experiment [2] has as its target T1, ROCK2. To be noted: reported by MLSCN, assay ID 644; read-out: ROCK2 enzymatic activity IC50; cited from earlier work.
The next experiment addresses ROCK1 (Homo sapiens (Human), UniProt Q13464). Briefly: FRET-based Z'-Lyte kinase assay, ROCK1.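 Note: kinase phosphorylates a coumarin/fluorescein-labelled FRET peptide, then a protease cleaves unphosphorylated peptide, progress read as donor to acceptor emission ratio after 400 nm excitation.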 The conditions noted are these: read-out: ROCK1 IC50. It is filed as biochemical.
The next experiment deals with Aurora-A (Homo sapiens (Human), UniProt O14965). Briefly: preliminary kinase-selectivity profile, Aurora-A. It is filed as biochemical.
Sequence of Aurora-A (O14965 whole entry): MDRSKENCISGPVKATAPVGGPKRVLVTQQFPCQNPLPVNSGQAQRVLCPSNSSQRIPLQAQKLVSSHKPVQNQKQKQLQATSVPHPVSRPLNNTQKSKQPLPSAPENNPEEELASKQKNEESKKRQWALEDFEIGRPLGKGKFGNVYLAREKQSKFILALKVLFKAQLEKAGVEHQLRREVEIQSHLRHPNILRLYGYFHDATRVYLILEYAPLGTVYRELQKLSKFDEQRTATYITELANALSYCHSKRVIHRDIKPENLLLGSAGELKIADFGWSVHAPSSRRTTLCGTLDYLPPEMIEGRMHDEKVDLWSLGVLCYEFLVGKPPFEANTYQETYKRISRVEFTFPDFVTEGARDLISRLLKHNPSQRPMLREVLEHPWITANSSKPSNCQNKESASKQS
Experiment [3] deals with phosphorylation of MYPT1, a substrate for ROCK kinase, in H1299 cells. Put plainly: phosphorylation levels of MYPT1 in intact H1299 cells (western blot). It is filed as cell-based, human. The conditions noted are these: H1299 human lung cancer cells; read-out: IC50 for inhibition of phosphorylation of MYPT1. (In western blotting, separated proteins are transferred to a membrane and probed.)

In the next experiment the test system is breast tumors. Briefly: transgenic mouse breast cancer model (rat Her2 under MMTV promoter). To be noted: 200 mpk/day, once a day for 14 days; last day of treatment relative to day of initiation. Format: in vivo. The protocol:
The anti tumor activity of 1bo was determined in vivo in a transgenic mouse breast cancer model. In this model, the mice harbor the rat Her2 gene under the control of the MMTV promoter. These mice therefore spontaneously develop tumors in their mammary tissues. Breast tumors were measured beginning at the time of tumor onset and treatment (once a day for 14 days) with vehicle (20% HPCD) or 1bo (200 mpk/day) began when tumor volumes reached about 200 to 2,300 mm^3. A wide range of tumor volumes was used to ensure that responses were not volume dependent. […] The percent change was calculated from the tumor volume on the last day of treatment relative to the volume on the day of initiation of treatment. […] Thus, on average the breast tumors from 1bo treated mice were 6.6 fold smaller compared to those tumors from mice treated with the vehicle control.

T1 sequence (O75116 whole entry, species assumed): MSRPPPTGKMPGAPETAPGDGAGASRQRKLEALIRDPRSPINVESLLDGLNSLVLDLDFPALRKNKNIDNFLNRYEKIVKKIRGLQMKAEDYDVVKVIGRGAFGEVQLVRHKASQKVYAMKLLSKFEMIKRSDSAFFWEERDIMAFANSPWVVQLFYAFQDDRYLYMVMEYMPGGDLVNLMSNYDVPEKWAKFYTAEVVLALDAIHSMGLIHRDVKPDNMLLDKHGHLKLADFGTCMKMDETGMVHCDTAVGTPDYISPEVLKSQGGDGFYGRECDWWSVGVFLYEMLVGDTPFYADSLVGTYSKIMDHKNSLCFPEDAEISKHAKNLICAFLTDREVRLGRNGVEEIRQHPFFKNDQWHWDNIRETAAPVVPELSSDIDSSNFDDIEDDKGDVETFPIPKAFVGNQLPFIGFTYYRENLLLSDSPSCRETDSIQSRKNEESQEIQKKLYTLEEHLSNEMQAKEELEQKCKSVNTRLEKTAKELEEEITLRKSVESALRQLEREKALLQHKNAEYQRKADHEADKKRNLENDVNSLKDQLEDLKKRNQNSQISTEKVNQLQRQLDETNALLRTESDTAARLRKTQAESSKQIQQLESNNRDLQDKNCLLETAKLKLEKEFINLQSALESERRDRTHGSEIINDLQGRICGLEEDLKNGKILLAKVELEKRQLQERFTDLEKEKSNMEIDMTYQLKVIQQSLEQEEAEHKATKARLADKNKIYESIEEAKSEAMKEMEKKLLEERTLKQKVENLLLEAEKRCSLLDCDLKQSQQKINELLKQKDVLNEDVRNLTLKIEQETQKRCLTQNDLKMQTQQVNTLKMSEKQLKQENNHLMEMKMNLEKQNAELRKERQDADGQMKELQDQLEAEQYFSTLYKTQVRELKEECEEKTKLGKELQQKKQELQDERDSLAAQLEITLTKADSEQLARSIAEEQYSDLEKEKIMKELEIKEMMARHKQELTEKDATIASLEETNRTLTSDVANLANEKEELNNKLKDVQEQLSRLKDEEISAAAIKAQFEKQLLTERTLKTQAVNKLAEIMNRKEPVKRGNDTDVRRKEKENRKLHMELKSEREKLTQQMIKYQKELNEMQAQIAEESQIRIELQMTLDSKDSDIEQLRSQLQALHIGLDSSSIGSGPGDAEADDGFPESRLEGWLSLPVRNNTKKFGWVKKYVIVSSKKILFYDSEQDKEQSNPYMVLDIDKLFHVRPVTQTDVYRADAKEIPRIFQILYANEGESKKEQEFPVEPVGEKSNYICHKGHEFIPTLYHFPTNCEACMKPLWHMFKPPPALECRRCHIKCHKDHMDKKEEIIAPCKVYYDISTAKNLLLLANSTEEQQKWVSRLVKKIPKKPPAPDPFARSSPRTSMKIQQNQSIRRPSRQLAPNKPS
Sequence of ROCK1 (Q13464 whole entry, species assumed): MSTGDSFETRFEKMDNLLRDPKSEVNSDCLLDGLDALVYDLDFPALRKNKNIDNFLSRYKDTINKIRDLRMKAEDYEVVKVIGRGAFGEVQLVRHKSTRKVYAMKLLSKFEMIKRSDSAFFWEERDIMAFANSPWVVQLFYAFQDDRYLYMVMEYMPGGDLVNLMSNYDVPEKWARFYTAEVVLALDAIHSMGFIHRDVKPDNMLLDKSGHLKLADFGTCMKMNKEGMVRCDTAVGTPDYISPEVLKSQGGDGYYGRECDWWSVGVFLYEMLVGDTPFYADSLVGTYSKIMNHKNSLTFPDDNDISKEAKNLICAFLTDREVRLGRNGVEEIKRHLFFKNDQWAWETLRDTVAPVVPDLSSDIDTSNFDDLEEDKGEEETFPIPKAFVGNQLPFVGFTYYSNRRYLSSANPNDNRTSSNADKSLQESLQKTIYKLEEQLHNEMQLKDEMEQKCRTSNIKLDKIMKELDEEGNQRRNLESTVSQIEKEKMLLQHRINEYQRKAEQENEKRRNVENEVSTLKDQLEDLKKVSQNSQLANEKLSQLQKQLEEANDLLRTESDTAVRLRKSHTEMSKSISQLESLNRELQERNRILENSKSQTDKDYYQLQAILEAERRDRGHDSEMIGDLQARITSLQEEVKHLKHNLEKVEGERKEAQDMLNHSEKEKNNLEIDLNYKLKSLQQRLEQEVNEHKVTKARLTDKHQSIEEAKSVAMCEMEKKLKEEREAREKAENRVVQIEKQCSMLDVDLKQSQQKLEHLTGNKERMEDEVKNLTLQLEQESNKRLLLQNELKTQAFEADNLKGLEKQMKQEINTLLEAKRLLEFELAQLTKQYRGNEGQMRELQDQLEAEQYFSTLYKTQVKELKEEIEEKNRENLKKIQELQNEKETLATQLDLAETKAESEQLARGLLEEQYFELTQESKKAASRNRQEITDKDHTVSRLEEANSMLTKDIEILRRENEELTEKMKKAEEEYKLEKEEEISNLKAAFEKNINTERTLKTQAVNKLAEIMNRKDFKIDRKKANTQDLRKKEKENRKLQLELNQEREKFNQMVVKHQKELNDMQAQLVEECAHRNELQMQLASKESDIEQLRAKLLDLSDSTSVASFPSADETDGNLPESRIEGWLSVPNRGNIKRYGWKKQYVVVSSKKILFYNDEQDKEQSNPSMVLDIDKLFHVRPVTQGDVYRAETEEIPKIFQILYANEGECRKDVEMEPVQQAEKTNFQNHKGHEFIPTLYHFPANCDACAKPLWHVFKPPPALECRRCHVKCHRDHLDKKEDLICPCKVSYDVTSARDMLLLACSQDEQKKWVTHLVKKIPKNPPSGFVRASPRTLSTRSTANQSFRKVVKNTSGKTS

One may read the IC50 as the concentration that inhibits the measured activity by half. Take `O=C(Nc1nc(-c2ccncc2)cs1)C1COc2ccccc2O1` (stereo not shown) [CID5056270, reference compound]: the concentration for half-maximal inhibition (IC50) at ROCK2 [1] is 40 nM; on ROCK2 [2], under 3 nM; on ROCK1, 76 nM; against Aurora-A, over 100000 nM.
For `O=C(NCc1cccc(O)c1)Nc1nc(-c2ccncc2)cs1` [Compound 1bo, 1-(3-Hydroxybenzyl)-3-(4-(pyridin-4-yl)thiazol-2-yl)urea], the concentration for half-maximal inhibition (IC50) in experiment [3] was 500 nM; at ROCK1, 8 nM. Also, the “average percent change in tumor volume” value in the experiment on breast tumors was 8.9%.
